Results reported in patent publication US9839648B2, “Combined anti-acid-fast bacterial agent, screening method for anti-acid-fast bacterial agents, and activity inhibitor of WecA or ortholog thereof” (MICROBIAL CHEMISTRY RESEARCH FOUNDATION, priority 2013, dated 2017).
Values after ≈ are worked out from the molar mass of the structure shown.

Key:
B. subtilis 168 strain = type: cell-based, Bacillus subtilis; conditions: [14C(U)]glycerol, FIGS. 7A, 7C
[1] = system: Mycobacterium tuberculosis H37Rv; assay: MIC by agar dilution method (Mycobacteria); type: cell-based; conditions: 7H10 agar, 37° C., 2 to 14 days
Experimental: The MIC for Mycobacteria was measured by an agar dilution method.

TagO = molecular target: T1, TagO (Bacillus subtilis, UniProt O34753); assay: Measurement of TagO activity with disruption liquid of 168/pHYcat-tagO cells; type: biochemical; conditions: compared with caprazamycin B, tunicamycin, vancomycin, levofloxacin; FIG. 9A
T1 construct: using disruption liquids of bacterial cells of the 168/pHYcat-mraY strain and the 168/pHYcat-tagO highly expressing these enzymes; expressed in transfected cells; host or cells: Bacillus subtilis 168 carrying plasmid pHYcat-tagO; supernatant of sonicated cells
Experimental: The activities of enzymes MraY and TagO were measured in the following manner using disruption liquids of bacterial cells of the 168/pHYcat-mraY strain and the 168/pHYcat-tagO highly expressing these enzymes and produced in Test Example 3-2.
As a control, tunicamycin, vancomycin and levofloxacin were tested similarly.
The bacterial cells were cultured in an LB medium until logarithmic growth phase (OD600=0.4) and then collected through centrifuging (5,000 rpm, 10 min), followed by washing twice with a TMS buffer (50 mM Tris-HCl (pH 7.5), 625 mM sucrose, 10 mM MgCl2, 5 mM 3-mercapto-1,2-propanediol, 1 mM PMSF).
Next, the precipitate was re-suspended in a TMS buffer having a volume 1/40 the initial volume, and the bacterial cells were disrupted through probe sonication (where the following procedure was repeated 10 times on ice: disrupting them for 30 sec and leaving them stand still for 30 sec). […]
The TagO activity was measured by allowing 0.02 mL of the following reaction mixture to react at 30° C. for 1 hour.
Next, the lower layer containing the reaction product was analyzed through thin-layer chromatography (TLC, using as a developing solvent chloroform:methanol:water:concentrated aqueous ammonia=65:35:4:4) and autoradiography, to thereby calculate the enzymatic activity of TagO as a rate with respect to that of the control. […]

Mycobacterium bovis BCG = assay: microbe, parasite or virus in culture; type: cell-based; conditions: Mycobacterium tuberculosis variant bovis BCG
[2] = molecular target: WecA of Mycobacterium smegmatis (Mycolicibacterium smegmatis, UniProt A0R211); assay: biochemical
[3] = system: B. subtilis 168/pHYcat-tagO; assay: MIC by microbroth dilution method, tagO highly expressing strain
[4] = system: B. subtilis CPZB-resistant strain; assay: MIC by microbroth dilution method, CPZB-resistant strain
Str. pneumoniae CR-2 = assay: MIC by agar dilution method (other than Mycobacteria)
Escherichia coli K-12 = assay: as above; type: cell-based; conditions: K12, Mueller-Hinton agar, 37° C., 18 hours
[5] = system: Ent. faecalis NCTC12203 (VRE); assay: as above; conditions: Enterococcus faecalis, 18 h
[6] = system: Staphylococcus aureus FDA209P; assay: as above; type: cell-based
[7] = system: B. subtilis 168 (parent strain); assay: MIC by microbroth dilution method, parent strain
[8] = system: Enterococcus faecalis JCM 5803; assay: MIC by agar dilution method (other than Mycobacteria); type: cell-based; conditions: JCM5803, Mueller-Hinton agar, 37° C., 18 hours
Bacillus subtilis PCI219 = assay: as above; type: cell-based; conditions: Mueller-Hinton agar, 37° C., 18 hours
Staph. aureus MRSA No. 5 = assay: as above
Bacillus subtilis 168 = assay: as above; type: cell-based; conditions: Mueller-Hinton agar, 37° C., 18 hours
[9] = system: B. subtilis 168/pHYcat-mraY; assay: MIC by microbroth dilution method, mraY highly expressing strain
[10] = system: Streptococcus pneumoniae S-223; assay: MIC by agar dilution method (other than Mycobacteria); type: cell-based
B. subtilis 168/pHYcatA = assay: MIC by microbroth dilution method, control strain with pHYcat

In the case of `CCCCc1ccc(NC(=O)C2=CCN(C)[C@@H]([C@H](O[C@@H]3O[C@H](CN)C(O)C3O)[C@H]3O[C@@H](n4ccc(=O)[nH]c4=O)C(O)C3O)C(=O)N2C)cc1` (stereo partly drawn) [CPZEN-45], the “incorporation into bacterial cells of glycerol (synthesis of teichoic acid)” value (B. subtilis 168 strain) is reported as “inhibited”, the MIC [1] is reported as 1.56 µg/mL (≈ 2.27 µM) and the “enzymatic activity of TagO (inhibition)” value (TagO) is reported as “the most strongly”. It also gave an MIC (Mycobacterium bovis BCG) of 2 µg/mL (≈ 2.9 µM), an IC50 [2] of 6.39 nM and an MIC ([3]; Bacillus subtilis) of 64 µg/mL (≈ 92.9 µM). The MIC ([4]; Bacillus subtilis, 16 h) was 4 µg/mL (≈ 5.81 µM), the “antibacterial activity (in words)” value (Str. pneumoniae CR-2; Str. pneumoniae CR-2 strain, has no WecA or ortholog) was “no antibacterial activity” and the MIC (Str. pneumoniae CR-2; Streptococcus pneumoniae, CR2, 18 h) was 128 µg/mL (≈ 186 µM). The MIC (Escherichia coli K-12) was greater than 100 µg/mL, the MIC [5] was 8 µg/mL (≈ 11.6 µM) and the MIC ([6]; Staphylococcus aureus FDA209P, agar dilution, Mueller-Hinton agar, 37° C., 18 hours) was 12.5 µg/mL (≈ 18.1 µM). The “antibacterial activity (in words)” value ([6]; Staphylococcus aureus FDA209 strain, WecA or ortholog not essential for growth) was “no antibacterial activity”, the MIC ([7]; Bacillus subtilis, 16 h) was 4 µg/mL (≈ 5.81 µM) and the MIC [8] was 8 µg/mL (≈ 11.6 µM). For the same compound, the MIC (Bacillus subtilis PCI219) was 1.56 µg/mL (≈ 2.27 µM), the “antibacterial activity (in words)” value (Staph. aureus MRSA No. 5; Staph. aureus MRSA No. 5 strain, WecA or ortholog not essential for growth) was “no antibacterial activity” and the MIC (Staph. aureus MRSA No. 5; Staphylococcus aureus, MRSA, 18 h) was 100 µg/mL (≈ 145 µM). The MIC (Bacillus subtilis 168) was 4 µg/mL (≈ 5.81 µM), the MIC ([9]; Bacillus subtilis) was 8 µg/mL (≈ 11.6 µM) and the MIC ([10]; S223, Streptococcus pneumoniae S-223, agar dilution, Mueller-Hinton agar, 37° C., 18 hours) was 16 µg/mL (≈ 23.2 µM). The “antibacterial activity (in words)” value ([10]; Streptococcus pneumoniae S-223 strain, has no WecA or ortholog) was “no antibacterial activity” and the MIC (B. subtilis 168/pHYcatA; Bacillus subtilis, 168/PHYCATA) was 8 µg/mL (≈ 11.6 µM).
Work on `CN[C@H](CC(C)C)C(=O)N[C@H]1C(=O)N[C@@H](CC(N)=O)C(=O)N[C@H]2C(=O)N[C@H]3C(=O)N[C@H](C(=O)N[C@H](C(=O)O)c4cc(O)cc(O)c4-c4cc3ccc4O)[C@H](O)c3ccc(c(Cl)c3)Oc3cc2cc(c3O[C@@H]2O[C@H](CO)[C@@H](O)[C@H](O)[C@H]2O[C@H]2C[C@](C)(N)[C@H](O)[C@H](C)O2)Oc2ccc(cc2Cl)[C@H]1O` [vancomycin, reference compound] yielded an MIC ([3]; Bacillus subtilis) of 1 µg/mL (≈ 0.69 µM), an MIC ([4]; Bacillus subtilis, 16 h) of 0.25 µg/mL (≈ 0.173 µM) and an MIC ([7]; Bacillus subtilis, 16 h) of 0.25 µg/mL (≈ 0.173 µM). It also gave an MIC ([9]; Bacillus subtilis) of 0.5 µg/mL (≈ 0.345 µM) and an MIC (B. subtilis 168/pHYcatA; Bacillus subtilis, 168/PHYCATA) of 0.5 µg/mL (≈ 0.345 µM).
For tunicamycin [reference compound], the MIC ([3]; B. subtilis 168/pHYcat-tagO (tagO highly expressing), microbroth dilution, LB medium) was 16 µg/mL, the MIC ([4]; B. subtilis CPZB-resistant strain, microbroth dilution, LB medium, 37° C., 16 hours) was 4 µg/mL and the MIC ([7]; B. subtilis 168 (parent strain), microbroth dilution, LB medium, 37° C., 16 hours) was 0.25 µg/mL. For the same compound, the MIC ([9]; B. subtilis 168/pHYcat-mraY (mraY highly expressing), microbroth dilution, LB medium) was 1 µg/mL and the MIC (B. subtilis 168/pHYcatA; B. subtilis 168/pHYcatA (control strain), microbroth dilution, LB medium) was 1 µg/mL.
